# Test results as given in PMC11748363, “Antimicrobial and Antiproliferative Properties of 2‐Phenyl‐N‐(Pyridin‐2‐yl)acetamides” (Chemical Biology & Drug Design, 2025).
# Read-outs that look alike come from different tables or passages of the source.
# Tests used:
# [1] = test system: Mycobacterium tuberculosis H37Ra; parameters: method as in Nawrot et al. 2021; settings: previously published N‐pyridinyl benzamides; ref Nawrot et al. 2021; cited from earlier work
# [2] = test system: Mycobacterium tuberculosis H37Ra; assay: Antimycobacterial microdilution broth MIC (resazurin), Mtb H37Ra; type: cell-based; settings: Mycobacterium tuberculosis, H37RA, read-out: MIC Mtb H37Ra
# [3] = test system: Mycolicibacterium smegmatis DSM 43465; assay: Antimycobacterial microdilution broth MIC (resazurin), M. smegmatis; type: cell-based; settings: DSM43465, read-out: MIC M. smegmatis
# [4] = test system: Mycolicibacterium aurum DSM 43999; assay: Antimycobacterial microdilution broth MIC (resazurin), M. aurum; type: cell-based; settings: DSM43999, read-out: MIC M. aurum
# [5] = test system: Mycobacterium tuberculosis H37Rv; assay: Microplate Alamar Blue Assay MIC, Mtb H37Rv; type: cell-based
# [6] = test system: M. kansasii CNCTC My 235/80; assay: Microplate Alamar Blue Assay MIC, M. kansasii; type: cell-based
# [7] = test system: M. avium ssp. avium CNCTC My 80/72; assay: Microplate Alamar Blue Assay MIC, M. avium; type: cell-based
smiles,measurement,setting,value
"O=C(Nc1ccccn1)c1ccc(Cl)cc1 [C00003 R1=H,R2=4-Cl]","MIC Mtb H37Ra (μg/mL), previously published compounds",[1],62.5 µg/mL
"O=C(Nc1ccccn1)c1ccccc1 [C00003 R1=H,R2=H]","MIC Mtb H37Ra (μg/mL), previously published compounds",[1],250 µg/mL
"O=C(Nc1cccc(Cl)n1)c1cccc(Cl)c1 [C00003 R1=6-Cl,R2=3-Cl]","MIC Mtb H37Ra (μg/mL), previously published compounds",[1],15.625 µg/mL
"O=C(Nc1ccc(Cl)cn1)c1ccccc1Cl [C00003 R1=5-Cl,R2=2-Cl]","MIC Mtb H37Ra (μg/mL), previously published compounds",[1],> 500 µg/mL
"COc1ccccc1C(=O)Nc1cccc(Cl)n1 [C00003 R1=6-Cl,R2=2-OMe]","MIC Mtb H37Ra (μg/mL), previously published compounds",[1],> 500 µg/mL
"O=C(Nc1ccc(Cl)cn1)c1ccccc1 [C00003 R1=5-Cl,R2=H]","MIC Mtb H37Ra (μg/mL), previously published compounds",[1],> 500 µg/mL
"NNC(=O)c1ccncc1 [INH, isoniazid, reference compound]",MIC,[2]; Calculated from MIC (μg/mL),0.9 to 1.8 µM
same,MIC,[2],0.125 to 0.25 mg/L
same,MIC,[3],7.81 to 15.6 mg/L
same,MIC,[4],3.91 to 7.81 mg/L
same,MIC Mtb H37Rv,[5],0.1 to 0.2 mg/L
same,MIC M. kansasii,[6],3.13 to 12.5 mg/L
same,MIC M. avium,[7],6.25 to 12.5 mg/L
"O=C(Nc1ccccn1)c1cccc(C(F)(F)F)c1 [C00003 R1=H,R2=3-CF3]","MIC Mtb H37Ra (μg/mL), previously published compounds",[1],31.25 µg/mL
"COc1ccc(C(=O)Nc2ccc(Cl)cn2)cc1 [C00003 R1=5-Cl,R2=4-OMe]","MIC Mtb H37Ra (μg/mL), previously published compounds",[1],62.5 µg/mL
"O=C(Nc1ccc(Cl)cn1)c1ccc(Cl)cc1 [C00003 R1=5-Cl,R2=4-Cl]","MIC Mtb H37Ra (μg/mL), previously published compounds",[1],> 500 µg/mL
"COc1cccc(C(=O)Nc2cccc(Cl)n2)c1 [C00003 R1=6-Cl,R2=3-OMe]","MIC Mtb H37Ra (μg/mL), previously published compounds",[1],31.25 µg/mL
"O=C(Nc1cccc(Cl)n1)c1ccccc1 [C00003 R1=6-Cl,R2=H]","MIC Mtb H37Ra (μg/mL), previously published compounds",[1],125 µg/mL
"O=C(Nc1ccc(Cl)cn1)c1cccc(C(F)(F)F)c1 [C00003 R1=5-Cl,R2=3-CF3]","MIC Mtb H37Ra (μg/mL), previously published compounds",[1],7.81 µg/mL
